Test results as given in patent US20020165128A1, “Compositions and methods for proteolytically inactivating infectious agents using lactoferrin and related molecules” (priority 1998, published 2002).

Tests used:
[1] = target: T1, lactoferrin-associated proteolysis of H. influenzae Hap (Homo sapiens, UniProt P02788); assay: Inhibition of lactoferrin-associated proteolysis of Hap by serine protease inhibitor; assay type: cell-based; conditions: 7.5 mM inhibitor in isopropanol, DB117/HapS243A
T1 construct: Lactoferrin amino acids are numbered beginning with the first residue in the mature protein (lacking the signal peptide); purchased Agennix Corporation; host or cells: Aspergillus awamori
T1 sequence (P02788 20-710): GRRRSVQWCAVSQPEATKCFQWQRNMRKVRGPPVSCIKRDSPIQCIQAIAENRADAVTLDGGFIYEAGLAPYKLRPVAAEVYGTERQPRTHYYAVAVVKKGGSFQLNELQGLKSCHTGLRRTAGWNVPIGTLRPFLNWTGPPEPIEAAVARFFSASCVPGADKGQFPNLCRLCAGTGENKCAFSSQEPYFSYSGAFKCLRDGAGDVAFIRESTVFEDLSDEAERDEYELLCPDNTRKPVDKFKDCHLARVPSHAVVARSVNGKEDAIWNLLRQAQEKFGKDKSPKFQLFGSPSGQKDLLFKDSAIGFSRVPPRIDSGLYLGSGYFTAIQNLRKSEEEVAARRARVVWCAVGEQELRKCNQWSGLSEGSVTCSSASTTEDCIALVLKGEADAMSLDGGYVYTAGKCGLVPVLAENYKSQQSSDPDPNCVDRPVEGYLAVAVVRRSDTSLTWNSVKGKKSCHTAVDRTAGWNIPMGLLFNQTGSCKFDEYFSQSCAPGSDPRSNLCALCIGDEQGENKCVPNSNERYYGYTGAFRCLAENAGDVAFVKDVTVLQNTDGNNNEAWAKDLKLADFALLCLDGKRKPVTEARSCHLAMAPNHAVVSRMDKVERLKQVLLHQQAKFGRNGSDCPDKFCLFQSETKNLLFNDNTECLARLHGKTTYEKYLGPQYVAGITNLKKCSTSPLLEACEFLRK
Experimental: To determine whether lactoferrin was functioning as a serine protease, the ability of phenylmethylsulfonyl fluoride (PMSF), a broad inhibitor of serine proteases, to inhibit degradation of Hap was examined. DB117/HapS243A was incubated in PBS (Lane 1), PBS with 430 nM A. awamori recombinant lactoferrin (Lane 2), PBS with 430 nM recombinant lactoferrin and 7.5% isopropanol (Lane 3), or PBS with recombinant lactoferrin and 7.5 mM PMSF in isopropanol (Lane 4). Whole cell lysates were prepared and examined by Western blot analysis with antiserum Rab 730, which reacts with the Hap preprotein, HapS, and Hap. The arrowhead indicates the Hap preprotein, and the arrows indicate Hap degradation products.

[2] = target: lactoferrin extraction of the IgA1 protease preprotein (Homo sapiens, UniProt P02788); assay type: cell-based; conditions: 10 mM inhibitor
Sequence of lactoferrin extraction of the IgA1 protease preprotein (P02788 20-710): as above

## O=S(=O)(F)Cc1ccccc1 [PMSF, phenylmethylsulfonyl fluoride]
[1]
  inhibition of proteolysis of Hap produced by 430 nM recombinant lactoferrin: significantly inhibited
[2]
  inhibition of lactoferrin extraction of IgA1 protease preprotein: inhibited
